Experimental data: publication PMC5652080 (Current Enzyme Inhibition, 2015)

Columns and labels:
[1] = biological target: Triosephosphate isomerase (G233D HsTIM) (Homo sapiens, UniProt P60174, G233D); experiment: coupled enzyme assay, Kmapp vs PEP at varied GAP; type: biochemical
[2] = biological target: Triosephosphate isomerase (WT HsTIM) (Homo sapiens, UniProt P60174); experiment: coupled enzyme assay, Kmapp vs PEP at varied GAP; type: biochemical
Chain of Triosephosphate isomerase (WT HsTIM) (P60174 2-249): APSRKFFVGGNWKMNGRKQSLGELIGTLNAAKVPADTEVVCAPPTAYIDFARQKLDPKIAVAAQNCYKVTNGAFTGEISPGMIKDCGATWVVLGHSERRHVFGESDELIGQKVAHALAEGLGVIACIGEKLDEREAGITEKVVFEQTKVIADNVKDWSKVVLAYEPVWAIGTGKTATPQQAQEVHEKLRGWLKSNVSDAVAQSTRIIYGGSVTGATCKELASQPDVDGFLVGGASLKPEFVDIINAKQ

Chain of Triosephosphate isomerase (G233D HsTIM) (P60174 2-249 G233D): as the sequence (P60174 2-249) above, with G232D counted along it

For `C=C(OP(=O)(O)O)C(=O)O` [phosphoenolpyruvate], the Ki [1] was 120 ± 5.2 µM and the Ki [2] was 123 ± 5 µM.
